# Assay results: patent US20230097866A1, “BACTERIAL TOPOISOMERASE INHIBITORS DERIVED FROM ISOMANNIDE” (Ohio State Innovation Foundation, priority 2020, published 2023)
# Legend:
# S. aureus ATCC 29213 [1] = test: MIC, CLSI broth microdilution, S. aureus ATCC 29213; assay type: cell-based; details: Staphylococcus aureus, ATCC29213
# S. aureus ATCC 29213 [2] = test: MIC panel (Laboratory Specialists, Inc.), S. aureus ATCC 29213; assay type: cell-based; details: Staphylococcus aureus, ATCC29213, read-out: MIC S. aureus ATCC 29213 (n = 3); Cmpd. 6; CLSI broth microdilution; very small pinpoint growth up to 4 μg/mL
# [3] = system: Streptococcus pneumoniae LSI-4246; test: MIC panel (Laboratory Specialists, Inc.), S. pneumoniae LSI-4246; assay type: cell-based; details: LSI4246, Cmpd. 6, penicillin-resistant strain
# [4] = system: Enterococcus faecium DRL-4193; test: MIC panel (Laboratory Specialists, Inc.), E. faecium DRL-4193; assay type: cell-based; details: DRL4193, Cmpd. 6, vancomycin-susceptible strain
# [5] = system: Enterococcus faecium LSI-3340; test: MIC panel (Laboratory Specialists, Inc.), E. faecium LSI-3340; assay type: cell-based; details: LSI3340, Cmpd. 6, vancomycin-resistant strain
# [6] = system: Pseudomonas aeruginosa LSI-2946; test: MIC panel (Laboratory Specialists, Inc.), P. aeruginosa; assay type: cell-based; details: LSI2946, Cmpd. 6, CLSI broth microdilution
# hERG = hERG (Homo sapiens, UniProt Q12809); test: hERG IC50, IonWorks Barracuda (Charles River); details: 6 versus 24
# From the text: The design of these isomannide-detived NBTIs focused on enhanced polarity and modulation of basicity through the two electronegative oxygen atoms in the linker.
# [7] = target: T1, hERG Human Potassium Ion Channel (Homo sapiens, UniProt Q12809); test: hERG QPatch CiPA assay; assay type: cell-based; details: mean, duplicate
# T1 construct: expressed in transfected cells
# T1 sequence (Q12809 whole entry): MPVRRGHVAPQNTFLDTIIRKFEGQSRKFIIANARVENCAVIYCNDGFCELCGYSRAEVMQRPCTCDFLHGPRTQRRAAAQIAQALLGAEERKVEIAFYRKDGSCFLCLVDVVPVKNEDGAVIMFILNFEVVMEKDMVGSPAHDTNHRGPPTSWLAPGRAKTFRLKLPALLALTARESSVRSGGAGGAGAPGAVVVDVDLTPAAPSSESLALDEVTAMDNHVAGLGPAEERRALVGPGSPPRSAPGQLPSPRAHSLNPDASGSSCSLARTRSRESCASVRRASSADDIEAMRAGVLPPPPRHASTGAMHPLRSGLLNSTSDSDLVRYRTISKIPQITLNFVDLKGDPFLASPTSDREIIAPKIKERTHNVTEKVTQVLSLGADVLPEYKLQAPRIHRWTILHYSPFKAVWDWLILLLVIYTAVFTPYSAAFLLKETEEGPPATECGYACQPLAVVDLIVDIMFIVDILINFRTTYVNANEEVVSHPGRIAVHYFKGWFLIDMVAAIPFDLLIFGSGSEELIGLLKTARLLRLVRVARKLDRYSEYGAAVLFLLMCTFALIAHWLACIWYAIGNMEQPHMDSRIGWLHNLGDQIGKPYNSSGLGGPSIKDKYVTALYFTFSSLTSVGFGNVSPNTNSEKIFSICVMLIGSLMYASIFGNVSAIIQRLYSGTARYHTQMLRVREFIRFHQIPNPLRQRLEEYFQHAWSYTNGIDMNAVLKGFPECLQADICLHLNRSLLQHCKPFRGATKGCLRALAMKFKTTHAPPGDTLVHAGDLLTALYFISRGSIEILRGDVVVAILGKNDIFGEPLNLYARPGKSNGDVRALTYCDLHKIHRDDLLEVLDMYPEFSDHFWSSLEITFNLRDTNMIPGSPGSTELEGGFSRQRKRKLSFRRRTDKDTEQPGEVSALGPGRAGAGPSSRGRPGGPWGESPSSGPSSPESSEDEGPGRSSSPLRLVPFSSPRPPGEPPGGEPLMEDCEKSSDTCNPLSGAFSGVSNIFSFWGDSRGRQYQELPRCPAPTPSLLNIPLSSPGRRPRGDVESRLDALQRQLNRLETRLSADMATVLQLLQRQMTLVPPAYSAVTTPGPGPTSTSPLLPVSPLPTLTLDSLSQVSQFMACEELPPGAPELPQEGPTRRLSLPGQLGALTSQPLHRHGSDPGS
# From the text: (§1) Early drug discovery programs commonly assess hERG inhibition as the only indicator of potential cardiovascular safety concerns. Researchers have recently recommended a more rigorous evaluation of multiple cardiac ion channels to provide a more comprehensive cardiovascular risk assessment (Fermini, B., et al., A New Perspective in the Field of Cardiac Safety Testing through the Comprehensive In Vitro Proarrhythmia Assay Paradigm. J. Biomolec. Screening 2016, 21, 1-11). Given the promising initial results for 6, further evaluation was undertaken (in duplicate) in a Comprehensive in vitro Proarrhythmia Assay (CiPA) eight assay panel run on the QPatch HT (Sophion, Denmark) automated patch clamp system at three concentrations (3, 30, and 100 μM). All data were filtered for seal quality, seal drop, and current amplitude. A stock solution of the test compound at 30 mM concentration was prepared in DMSO.
# (§2) The parameters measured were the maximum tail current evoked on stepping to 40 mV and ramping back to −80 mV from the test pulse. The peak current amplitude was calculated before and after compound addition and the amount of block was assessed by dividing the Test compound current amplitude by the Control current amplitude. Control is the mean hERG current amplitude collected 15 seconds at the end of the control; Test Compound is the mean hERG current amplitude collected in the presence of test compound at each concentration. The positive control was E-4031.
# hKCNQ1/hminK = target: T2, hKCNQ1/hminK (Homo sapiens, UniProt P51787); test: KCNQ1/hminK QPatch CiPA assay; assay type: cell-based; details: mean, duplicate, read-out: % Inhibition KCNQ1 (peak current)
# T2 construct: expressed in transfected cells
# From the text: as §1
# as §2, with “outward” for “tail”, “60” for “40 mV and ramping back to −80”, “hKCNQ1/hminK” for “hERG”, “chromanol 293B.” for “E-4031.”
# [8] = target: T3, Cav1.2 (L-type) Human Calcium Ion Channel (Homo sapiens, UniProt Q13936); test: Cav1.2 (L-type) QPatch CiPA assay; assay type: cell-based; details: mean, duplicate
# T3 construct: expressed in transfected cells
# T3 sequence (Q13936 whole entry): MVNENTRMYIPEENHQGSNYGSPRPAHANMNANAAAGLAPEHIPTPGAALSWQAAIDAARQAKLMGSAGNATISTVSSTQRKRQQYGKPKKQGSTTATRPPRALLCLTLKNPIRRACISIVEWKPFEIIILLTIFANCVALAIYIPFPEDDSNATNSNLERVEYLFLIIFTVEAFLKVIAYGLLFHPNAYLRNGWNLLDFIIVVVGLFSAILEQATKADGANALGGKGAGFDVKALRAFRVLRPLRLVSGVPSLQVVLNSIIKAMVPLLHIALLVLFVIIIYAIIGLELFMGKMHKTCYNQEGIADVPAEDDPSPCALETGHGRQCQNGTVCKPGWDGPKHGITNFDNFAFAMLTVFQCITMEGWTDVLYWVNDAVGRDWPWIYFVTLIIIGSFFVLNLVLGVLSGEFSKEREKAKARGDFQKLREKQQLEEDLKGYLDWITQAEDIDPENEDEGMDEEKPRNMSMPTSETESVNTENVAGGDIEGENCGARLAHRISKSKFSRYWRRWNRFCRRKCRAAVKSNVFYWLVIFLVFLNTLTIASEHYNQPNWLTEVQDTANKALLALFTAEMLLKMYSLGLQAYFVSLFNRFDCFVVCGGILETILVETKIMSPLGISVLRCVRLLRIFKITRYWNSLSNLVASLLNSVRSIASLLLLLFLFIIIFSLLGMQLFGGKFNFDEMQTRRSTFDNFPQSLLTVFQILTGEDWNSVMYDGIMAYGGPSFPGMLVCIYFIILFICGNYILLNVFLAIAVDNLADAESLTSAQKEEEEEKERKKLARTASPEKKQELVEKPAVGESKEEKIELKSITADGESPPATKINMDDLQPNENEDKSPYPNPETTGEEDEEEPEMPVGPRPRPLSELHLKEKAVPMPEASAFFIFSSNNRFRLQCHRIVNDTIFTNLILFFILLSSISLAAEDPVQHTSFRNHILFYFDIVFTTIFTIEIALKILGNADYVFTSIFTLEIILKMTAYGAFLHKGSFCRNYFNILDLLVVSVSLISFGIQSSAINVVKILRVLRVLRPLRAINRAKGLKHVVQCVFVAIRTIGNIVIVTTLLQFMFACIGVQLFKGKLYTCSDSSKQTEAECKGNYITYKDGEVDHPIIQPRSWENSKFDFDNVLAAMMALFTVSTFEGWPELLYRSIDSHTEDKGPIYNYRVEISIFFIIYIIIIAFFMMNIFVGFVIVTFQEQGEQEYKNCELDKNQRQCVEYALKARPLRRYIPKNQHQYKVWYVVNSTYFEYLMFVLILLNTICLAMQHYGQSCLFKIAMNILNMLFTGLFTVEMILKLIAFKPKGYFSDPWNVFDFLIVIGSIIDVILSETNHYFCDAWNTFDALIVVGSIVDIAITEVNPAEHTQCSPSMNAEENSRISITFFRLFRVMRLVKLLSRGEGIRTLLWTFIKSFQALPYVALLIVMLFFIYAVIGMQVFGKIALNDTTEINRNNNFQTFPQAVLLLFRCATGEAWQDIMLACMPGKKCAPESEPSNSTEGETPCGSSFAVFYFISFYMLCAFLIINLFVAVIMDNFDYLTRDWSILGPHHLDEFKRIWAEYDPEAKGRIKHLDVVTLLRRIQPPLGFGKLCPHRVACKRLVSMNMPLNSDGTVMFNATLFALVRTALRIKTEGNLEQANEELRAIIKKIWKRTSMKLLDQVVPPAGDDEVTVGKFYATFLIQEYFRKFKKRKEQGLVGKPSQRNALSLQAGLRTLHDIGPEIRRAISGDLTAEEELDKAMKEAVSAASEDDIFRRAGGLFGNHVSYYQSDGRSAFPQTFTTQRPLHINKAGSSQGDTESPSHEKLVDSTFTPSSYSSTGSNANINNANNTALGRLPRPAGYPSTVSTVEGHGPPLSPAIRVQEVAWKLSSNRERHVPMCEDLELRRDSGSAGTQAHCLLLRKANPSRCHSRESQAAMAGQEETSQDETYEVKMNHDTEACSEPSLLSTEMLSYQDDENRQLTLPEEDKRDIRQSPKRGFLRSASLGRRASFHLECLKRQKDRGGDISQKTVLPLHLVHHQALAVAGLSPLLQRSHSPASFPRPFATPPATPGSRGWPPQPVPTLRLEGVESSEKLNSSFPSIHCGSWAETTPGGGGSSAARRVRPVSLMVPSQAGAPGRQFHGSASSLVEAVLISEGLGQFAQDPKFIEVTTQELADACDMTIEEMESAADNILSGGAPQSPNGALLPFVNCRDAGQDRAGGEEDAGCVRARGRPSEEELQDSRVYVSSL
# T3 sequence (Q08289 whole entry partner): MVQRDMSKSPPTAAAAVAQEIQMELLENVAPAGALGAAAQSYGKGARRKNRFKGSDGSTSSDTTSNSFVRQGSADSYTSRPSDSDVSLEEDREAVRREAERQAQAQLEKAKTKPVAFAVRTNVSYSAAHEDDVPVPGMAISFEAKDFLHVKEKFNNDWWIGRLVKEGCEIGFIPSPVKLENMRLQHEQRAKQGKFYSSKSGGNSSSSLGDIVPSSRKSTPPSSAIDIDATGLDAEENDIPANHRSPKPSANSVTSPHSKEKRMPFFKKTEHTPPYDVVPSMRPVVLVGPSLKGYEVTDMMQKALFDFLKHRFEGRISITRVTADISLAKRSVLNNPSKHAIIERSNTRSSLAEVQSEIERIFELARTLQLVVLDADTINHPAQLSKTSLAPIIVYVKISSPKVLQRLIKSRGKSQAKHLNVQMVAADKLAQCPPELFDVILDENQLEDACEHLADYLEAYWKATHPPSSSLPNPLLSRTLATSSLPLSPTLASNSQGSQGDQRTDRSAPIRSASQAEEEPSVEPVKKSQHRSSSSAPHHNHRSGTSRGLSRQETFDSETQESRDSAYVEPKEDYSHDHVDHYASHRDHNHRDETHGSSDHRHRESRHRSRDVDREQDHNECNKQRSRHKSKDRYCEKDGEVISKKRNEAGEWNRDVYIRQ
# T3 sequence (P54289 25-946 partner limits assumed): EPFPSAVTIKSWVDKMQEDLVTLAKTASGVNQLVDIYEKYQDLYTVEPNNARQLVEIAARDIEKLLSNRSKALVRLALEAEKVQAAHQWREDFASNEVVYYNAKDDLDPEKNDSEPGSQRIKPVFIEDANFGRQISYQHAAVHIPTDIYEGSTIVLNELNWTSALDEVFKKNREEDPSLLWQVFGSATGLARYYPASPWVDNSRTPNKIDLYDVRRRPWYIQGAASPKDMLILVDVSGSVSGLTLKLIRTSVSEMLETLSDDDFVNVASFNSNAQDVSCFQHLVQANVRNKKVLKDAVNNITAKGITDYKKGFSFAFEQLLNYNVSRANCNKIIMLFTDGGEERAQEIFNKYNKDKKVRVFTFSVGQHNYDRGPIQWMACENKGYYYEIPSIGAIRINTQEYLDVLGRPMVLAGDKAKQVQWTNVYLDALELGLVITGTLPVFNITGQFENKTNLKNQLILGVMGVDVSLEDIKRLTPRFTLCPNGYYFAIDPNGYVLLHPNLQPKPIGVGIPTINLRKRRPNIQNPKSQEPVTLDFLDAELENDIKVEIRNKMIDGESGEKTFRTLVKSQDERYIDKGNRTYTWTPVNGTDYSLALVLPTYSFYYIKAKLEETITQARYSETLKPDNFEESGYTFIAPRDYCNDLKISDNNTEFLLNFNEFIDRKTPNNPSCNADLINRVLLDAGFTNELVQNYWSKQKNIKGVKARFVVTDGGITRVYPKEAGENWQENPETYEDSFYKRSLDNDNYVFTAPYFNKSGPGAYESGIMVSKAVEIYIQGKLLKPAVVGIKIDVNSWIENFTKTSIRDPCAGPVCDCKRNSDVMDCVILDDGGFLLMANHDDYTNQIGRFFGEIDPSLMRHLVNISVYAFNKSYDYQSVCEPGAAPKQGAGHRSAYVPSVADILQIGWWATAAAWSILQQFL
# T3 sequence (P54289 947-1103 partner limits assumed): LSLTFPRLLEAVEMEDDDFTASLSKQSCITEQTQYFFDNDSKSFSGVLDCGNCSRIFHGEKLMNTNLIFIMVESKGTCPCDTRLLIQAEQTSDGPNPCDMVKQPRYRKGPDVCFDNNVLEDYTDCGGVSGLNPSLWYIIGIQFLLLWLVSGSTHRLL
# From the text: as §1
# as §2, with “inward” for “tail”, “10” for “40 mV and ramping back to −80”, “hCav1.2” for “hERG”, “nifedipine.” for “E-4031.”
# Nav site 2 = test: Off-target safety panel, Nav site 2; assay type: binding; details: duplicate
# Description: Potential off-target pharmacology for compound 6 was also evaluated by screening in duplicate against a panel (Bowes, J., et al., Reducing Safety-Related Drug Attrition: The Use of in vitro Pharmacological Profiling. Nat. Rev. Drug Disc. 2012, 11, 909-922) of 44 receptors, enzymes, etc. Of the 44 potential targets, only five were inhibited by >50% at a concentration of 100 μM (Table 7).
# HepaRG cells = test: ATP viability cytotoxicity assay in HepaRG cells; assay type: cell-based; details: 24 hours
# Description: The cytotoxicity of compound 6 was measured using an ATP viability assay in HepaRG cells, with a five-point concentration-response curve (Table 8).
# HepaRG cells were plated in a collagen coated 96-well plate overnight and treated the next day with test compounds and controls for 24 hours. Tamoxifen was used as a positive control compound for cytotoxicity (25 μM). After 24 hours, the plate was equilibrated to room temperature for 30 minutes and Cell Titer-Glo Reagent was added. Luminescence was measured using an EnSpire multimode plate reader. Data were reported as % cytotoxi city compared to vehicle treated control.
# Cytotoxicity was determined by calculating the percentage of vehicle control: […]
# physchem = assay type: physicochemical; details: aqueous buffer, kinetic from dmso stock; buffered aqueous solution (pH 7.4)
# Description: Test compounds were prepared at 10 mM in 100% DMSO and diluted into aqueous buffer, pH 7.4, to achieve a final test compound concentration of 100 μM with a final DMSO concentration of 1%. Caffeine and tamoxifen were assayed as control compounds. The samples were shaken for 90 minutes at room temperature and then filtered through a 0.4 μm filter plate. Filtrates were collected and analyzed using LC-MS/MS.
structure (smiles),measurement,setting,value
"COc1ccc2ncc(F)c(CC[C@@]3(O)CO[C@@H]4[C@@H](NCc5cc6c(cn5)OCCO6)CO[C@@H]43)c2n1 [Compound 6, (3R, 3aS,6S,6aR)-6-(((2,3-dihydro-[1,4]dioxino[2,36-c]pyridin-7-yl)methyl)amnino)-3-(2-(3-fluoro-6-methoxy-1,5-naphthyridin-4-yl)ethyl)hexahydrofuro[3,2-b]furan-3-ol]",MIC,"S. aureus ATCC 29213 [1]; CLSI broth microdilution, triplicate, read-out: MIC ATCC 29213",1 to 4 µg/mL
same,MIC,"S. aureus ATCC 29213 [1]; same MIC expressed in μM, read-out: MIC for S. aureus ATCC 29213",2 to 8 µM
same,MIC,S. aureus ATCC 29213 [2],0.25 µg/mL
same,MIC,[3],≤ 0.12 µg/mL
same,MIC,[4],2 µg/mL
same,MIC,[5],0.25 µg/mL
same,MIC,[6],≤ 0.12 µg/mL
same,hERG IC50 higher than benzodioxine 24,hERG,ca. 3 fold
same,% Inhibition hERG (tail current),[7]; 3 μM,−2.4%
same,% Inhibition hERG (tail current),[7]; 30 μM,11.3%
same,% Inhibition hERG (tail current),[7]; 100 μM,39.0%
same,inhibition at 3 µM,hKCNQ1/hminK; 3 μM,-2.9%
same,inhibition at 30 µM,hKCNQ1/hminK; 30 μM,1.5%
same,inhibition at 100 µM,hKCNQ1/hminK; 100 μM,22.1%
same,% Inhibition Cav1.2 (peak current),[8]; 3 μM,4.7%
same,% Inhibition Cav1.2 (peak current),[8]; 30 μM,23.3%
same,% Inhibition Cav1.2 (peak current),[8]; 100 μM,24.9%
same,"% Inhibition at 100 μM conc., Nav site 2",Nav site 2,78%
same,% Cytotoxicity,HepaRG cells; 0.01 μM,6%
same,% Cytotoxicity,HepaRG cells; 0.1 μM,4%
same,% Cytotoxicity,HepaRG cells; 1 μM,9%
same,% Cytotoxicity,HepaRG cells; 10 μM,8%
same,solubility kinetic,physchem,76.2 µM
